Experimental findings from patent publication US20110077248A1, “IMIDAZOPYRIDINE AND RELATED ANALOGS AS SIRTUIN MODULATORS” (Sirtris Pharmaceuticals, Inc., priority 2008, published 2011) are described below.

Where only a bound is given, the exact number is not on record here.

This test concerns the target T1, SIRT1 (Homo sapiens, UniProt Q96EB6).
T1 construct: His-tag (N); made in house; host or cells: E. coli BL21(DE3), T7-promoter vector
T1 sequence (Q96EB6 1-747): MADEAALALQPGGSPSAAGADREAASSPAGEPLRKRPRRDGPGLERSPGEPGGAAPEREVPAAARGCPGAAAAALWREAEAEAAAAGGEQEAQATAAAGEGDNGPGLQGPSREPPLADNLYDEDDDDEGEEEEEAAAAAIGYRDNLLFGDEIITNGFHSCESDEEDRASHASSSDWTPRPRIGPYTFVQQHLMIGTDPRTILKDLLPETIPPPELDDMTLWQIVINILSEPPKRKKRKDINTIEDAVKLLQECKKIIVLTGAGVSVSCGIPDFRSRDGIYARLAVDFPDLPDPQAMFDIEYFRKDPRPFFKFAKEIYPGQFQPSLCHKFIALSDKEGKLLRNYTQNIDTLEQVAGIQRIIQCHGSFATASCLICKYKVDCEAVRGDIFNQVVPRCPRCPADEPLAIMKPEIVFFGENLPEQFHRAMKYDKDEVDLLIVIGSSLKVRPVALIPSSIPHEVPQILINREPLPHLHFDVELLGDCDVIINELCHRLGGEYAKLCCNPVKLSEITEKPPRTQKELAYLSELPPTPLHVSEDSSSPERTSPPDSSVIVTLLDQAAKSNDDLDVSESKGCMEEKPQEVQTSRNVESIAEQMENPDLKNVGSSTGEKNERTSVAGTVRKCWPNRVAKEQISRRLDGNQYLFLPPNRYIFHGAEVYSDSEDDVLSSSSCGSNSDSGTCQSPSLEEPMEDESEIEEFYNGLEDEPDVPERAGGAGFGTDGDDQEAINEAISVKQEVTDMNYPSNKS
As to the kind of experiment: Mass spectrometry based assay for modulators of SIRT1 activity (deacetylation of p53-based acetylated peptide). The class given is biochemical. Particulars: for EC1.5: concentration of test compound that results in 150% activation of SIRT1, 0.5 μM peptide substrate, 120 μM βNAD+, 10 nM SIRT1, 25 min, 25° C.; for Emax: percent maximum fold activation of SIRT1. A digest of the protocol: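 Reaction: 10 nM His-tagged human SIRT1 (E. coli-expressed) with 0.5 μM 5TMR-labelled acetylated p53-derived peptide and 120 μM NAD+, 25 min at 25 °C, pH 8 Tris-acetate buffer; formic acid quench. Deacetylation quantified by mass spectrometry against a DMSO control; EC1.5 = concentration giving 150% activation.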

As to `O=C(Nc1nccs1)c1cccn2cc(-c3cccc(F)c3)nc12` [Compound 154], the EC1.5 result is listed as “C (EC1.5>25 uM)” and the Emax is less than 200%.
Take `O=C(Nc1cccn2cc(-c3ccccc3)nc12)c1cnccn1` [Compound 102]: the EC1.5 entry is recorded as “C (EC1.5>25 uM)” and the Emax was less than 200%.
In the same order, the values of `O=C(Nc1nccs1)c1cccn2cc(-c3ccc(C(F)(F)F)cc3)nc12` [Compound 150] are “C (EC1.5>25 uM)” and less than 200%.
With `O=C(Nc1ccccc1)c1cccn2cc(-c3cccc(C(F)(F)F)c3)nc12` [Compound 113, N-phenyl-2-(3-(trifluoromethyl)phenyl)imidazo[1,2-a]pyridine-8-carboxamide], the EC1.5 entry was “C (EC1.5>25 uM)” and the Emax was less than 200%.
In the case of `Cc1ccc(-c2nc3c(C(=O)Nc4nc(CN5CCOCC5)cs4)cccn3n2)cn1` [Compound 212], the EC1.5 result is “B (EC1.5 1-25 uM)” and the maximal effect (Emax) is less than 200%.
As for `O=C(Nc1ncc(CN2CCCC2)s1)c1cccn2cc(-c3ccc(F)cc3C(F)(F)F)nc12` [Compound 146], the EC1.5 result is reported as “B (EC1.5 1-25 uM)” and the Emax was greater than 200%.
With `O=C(Nc1ccccn1)c1cccn2nc(-c3ccc(OCCN4CCOCC4)cc3C(F)F)nc12` [Compound 248], the EC1.5 result is given as “B (EC1.5 1-25 uM)” and the Emax was greater than 200%.
In the same order, the values of `O=C(NC1CCCC1)c1cccn2cc(-c3ccccc3)nc12` [Compound 110] are “C (EC1.5>25 uM)” and less than 200%.
For `O=C(Nc1cccc(CN2CCOCC2)n1)c1cccn2cc(-c3cccc(C(F)(F)F)c3)nc12` [Compound 160], the EC1.5 result is “A (EC1.5<1.0 uM)” and the Emax was greater than 200%.
As to `O=C(Nc1nccs1)c1nccn2cc(-c3cccc(OC(F)(F)F)c3)nc12` [Compound 142], the EC1.5 entry is listed as “C (EC1.5>25 uM)” and the Emax is less than 200%.
Take `O=C(Nc1cnccn1)c1nccn2cc(-c3ccccc3OC(F)(F)F)nc12` [Compound 245]: the EC1.5 entry is “A (EC1.5<1.0 uM)” and the Emax was greater than 200%.
As to `O=C(Nc1cccc(CN2CCOCC2)n1)c1cccn2cc(-c3cccc(C(F)F)c3)nc12` [Compound 209], the EC1.5 result is “A (EC1.5<1.0 uM)” and the Emax is greater than 200%.
On the same counts, the results for `O=C(Nc1ccccc1)c1cccn2cc(-c3cccc(OC(F)(F)F)c3)nc12` [Compound 116] are “C (EC1.5>25 uM)” and less than 200%.
For the molecule `O=C(Nc1ccccn1)c1cccn2nc(-c3cccc(N4CCOCC4)c3)nc12` [Compound 182], the EC1.5 entry is “B (EC1.5 1-25 uM)” and the Emax is less than 200%.
With `Cc1cnc(NC(=O)c2nccn3cc(-c4ccccc4C(F)(F)F)nc23)s1` [Compound 173], the EC1.5 result is “A (EC1.5<1.0 uM)” and the Emax was greater than 200%.
On the same counts, the results for `O=C(Nc1nc(CN2CCOCC2)cs1)c1cccn2cc(-c3cc(F)cc(F)c3)nc12` [Compound 192] are “A (EC1.5<1.0 uM)” and greater than 200%.
In the case of `O=C(Nc1cccn2cc(-c3cccc(C(F)(F)F)c3)nc12)c1cscn1` [Compound 117], the EC1.5 entry is given as “B (EC1.5 1-25 uM)” and the Emax was less than 200%.
On to `O=C(Nc1nc(CN2CCOCC2)cs1)c1cccn2cc(-c3cccc(OC(F)(F)F)c3)nc12` [Compound 133], for which the EC1.5 entry is on record as “A (EC1.5<1.0 uM)” and the Emax was greater than 200%.
For `Cc1ncccc1-c1nc2c(C(=O)Nc3nccs3)cccn2n1` [Compound 239, 2-(2-methylpyridin-3-yl)-N-(thiazol-2-yl)-[1,2,4]triazolo[1,5-a]pyridine-8-carboxamide], the EC1.5 entry is given as “C (EC1.5>25 uM)” and the Emax is less than 200%.
In the same order, the values of `O=C(Nc1nccs1)c1cccn2cc(-c3ccc(F)cc3)nc12` [Compound 156] are “C (EC1.5>25 uM)” and less than 200%.
With `O=C(Nc1cccc(CN2CCOCC2)n1)c1cccn2nc(-c3cccc(OC(F)(F)F)c3)nc12` [Compound 180], the EC1.5 result is recorded as “B (EC1.5 1-25 uM)” and the Emax was greater than 200%.
In the case of `O=C(Nc1nccs1)c1cccn2nc(-c3ccc(N4CCOCC4)cc3C(F)(F)F)nc12` [Compound 219, 2-(4-morpholino-2-(trifluoromethyl)phenyl)-N-(thiazol-2-yl)-[1,2,4]triazolo[1,5-a]pyridine-8-carboxamide], the EC1.5 result is on record as “A (EC1.5<1.0 uM)” and the Emax is greater than 200%.
As to `O=C(Nc1ccccn1)c1cccn2cc(-c3cccc(CN4CCCC4)c3)nc12` [Compound 257], the EC1.5 result is on record as “B (EC1.5 1-25 uM)” and the Emax is greater than 200%.
Take `O=C(Nc1ccccn1)c1cccn2cc(-c3cccc(F)c3)nc12` [Compound 155]: the EC1.5 entry is recorded as “C (EC1.5>25 uM)” and the Emax is less than 200%.
On the same counts, the results for `O=C(Nc1cccc(CN2CCOCC2)n1)c1cccn2cc(-c3ccc(F)c(Cl)c3)nc12` [Compound 236] are “A (EC1.5<1.0 uM)” and greater than 200%.
Turning to `Cc1cnc(NC(=O)c2nccn3cc(-c4ccccc4OC(F)(F)F)nc23)s1` [Compound 187], the EC1.5 result was “B (EC1.5 1-25 uM)” and the Emax is greater than 200%.
In the case of `O=C(Nc1cnccn1)c1nccn2cc(-c3ccc(F)cc3C(F)(F)F)nc12` [Compound 247], the EC1.5 entry is reported as “B (EC1.5 1-25 uM)” and the Emax was greater than 200%.
Take `O=C(Nc1nc(CN2CCOCC2)cs1)c1nccn2cc(-c3ccccc3C(F)(F)F)nc12` [Compound 258]: the EC1.5 entry is on record as “A (EC1.5<1.0 uM)” and the maximal response (Emax) was greater than 200%.
For the molecule `O=C(Nc1nccs1)c1cccn2cc(-c3ccc(N4CCOCC4)cc3)nc12` [Compound 183], the EC1.5 entry is recorded as “C (EC1.5>25 uM)” and the Emax was less than 200%.
In the case of `O=C(Nc1nc(CN2CCOCC2)cs1)c1cccn2cc(-c3cc(F)ccc3F)nc12` [Compound 200], the EC1.5 entry is listed as “A (EC1.5<1.0 uM)” and the Emax is greater than 200%.
Regarding `Cc1cc(-c2nc3c(C(=O)Nc4ccccn4)cccn3n2)ccn1` [Compound 215], the EC1.5 entry is “B (EC1.5 1-25 uM)” and the Emax is greater than 200%.
Regarding `O=C(Nc1ccccn1)c1cccn2cc(-c3ccc(N4CCOCC4)cc3)nc12` [Compound 184], the EC1.5 entry is given as “C (EC1.5>25 uM)” and the Emax was less than 200%.
Take `Cc1ncccc1-c1nc2c(C(=O)Nc3ccccn3)cccn2n1` [Compound 240]: the EC1.5 result was “C (EC1.5>25 uM)” and the Emax was less than 200%.
For `O=C(Nc1ccccn1)c1nccn2cc(-c3ccc(F)cc3C(F)(F)F)nc12` [Compound 189], the EC1.5 entry was “B (EC1.5 1-25 uM)” and the Emax is greater than 200%.
Regarding `O=C(Nc1nc(CN2CCOCC2)cs1)c1nccn2cc(-c3ccc(F)cc3C(F)(F)F)nc12` [Compound 260], the EC1.5 entry is recorded as “A (EC1.5<1.0 uM)” and the Emax is greater than 200%.
In the case of `O=C(Nc1cccnn1)c1nccn2cc(-c3ccccc3OC(F)(F)F)nc12` [Compound 243], the EC1.5 entry is reported as “B (EC1.5 1-25 uM)” and the Emax is greater than 200%.
In the same order, the values of `O=C(Nc1nc(CN2CCOCC2)cs1)c1cccn2cc(-c3cccc(Cl)c3)nc12` [Compound 233] are “A (EC1.5<1.0 uM)” and greater than 200%.
Turning to `O=C(Nc1ccccn1)c1nccn2cc(-c3ccc(N4CCCC4)cc3)nc12` [Compound 169], the EC1.5 result is “C (EC1.5>25 uM)” and the Emax was less than 200%.
In the case of `O=C(Nc1cccc(CN2CCOCC2)n1)c1cccn2cc(-c3cccc(F)c3F)nc12` [Compound 232], the EC1.5 result is reported as “B (EC1.5 1-25 uM)” and the Emax was less than 200%.
In the same order, the values of `O=C(Nc1nccs1)c1cccn2nc(-c3ccc(F)cc3C(F)F)nc12` [Compound 263] are “C (EC1.5>25 uM)” and less than 200%.
In the same order, the values of `O=C(Nc1nccs1)c1cccn2cc(-c3ccc(CN4CCCC4)cc3)nc12` [Compound 252] are “B (EC1.5 1-25 uM)” and greater than 200%.
Turning to `O=C(Nc1ccccn1)c1cccn2cc(-c3cccc(C(F)F)c3)nc12` [Compound 207], the EC1.5 result is given as “A (EC1.5<1.0 uM)” and the Emax was less than 200%.
Take `Cc1ncccc1-c1nc2c(C(=O)Nc3cccc(CN4CCOCC4)n3)cccn2n1` [Compound 242]: the EC1.5 entry is “B (EC1.5 1-25 uM)” and the Emax was greater than 200%.
On the same counts, the results for `Cc1cc(-c2nc3c(C(=O)Nc4nccs4)cccn3n2)ccn1` [Compound 214, 2-(2-methylpyridin-4-yl)-N-(thiazol-2-yl)-[1,2,4]triazolo[1,5-a]pyridine-8-carboxamide] are “B (EC1.5 1-25 uM)” and greater than 200%.

For orientation: Emax means the maximal effect, on the per cent scale that the assay sets.
